Assay results from the supplement of paper PMC10307832.

What was measured:
Experiment in all cases: relative viability (nuclei count vs DMSO), 5 days (fraction); higher = more cells survive
SGI-1776 + OSI-027 = compound: CN1CCC(CNc2ccc3ncc(-c4cccc(OC(F)(F)F)c4)n3n2)CC1 [SGI-1776] + COc1cccc2cc(-c3nc([C@H]4CC[C@H](C(=O)O)CC4)n4ncnc(N)c34)[nH]c12 [OSI-027] (partner 0.5 µM)
Method in brief: (§1)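 Five library-drug doses in √10 steps were combined with a fixed anchor-drug dose, or a single drug was given alone, by pin tool to lung cancer cell lines in 1536-well plates the day after seeding. Nuclei were stained and counted after 5 days. Relative viability is the nuclei count in treated wells over that in vehicle wells, taken as the median of duplicate plates.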

Entinostat + Pictilisib = compound: Nc1ccccc1NC(=O)c1ccc(CNC(=O)OCc2cccnc2)cc1 [Entinostat] + CS(=O)(=O)N1CCN(Cc2cc3nc(-c4cccc5[nH]ncc45)nc(N4CCOCC4)c3s2)CC1 [Pictilisib] (partner 1 µM)
Method in brief: as §1

Entinostat + Palbociclib = compound: Nc1ccccc1NC(=O)c1ccc(CNC(=O)OCc2cccnc2)cc1 [Entinostat] + CC(=O)c1c(C)c2cnc(Nc3ccc(N4CCNCC4)cn3)nc2n(C2CCCC2)c1=O [Palbociclib] (partner 0.5 µM)
Method in brief: as §1

Entinostat + Foretinib = compound: Nc1ccccc1NC(=O)c1ccc(CNC(=O)OCc2cccnc2)cc1 [Entinostat] + COc1cc2c(Oc3ccc(NC(=O)C4(C(=O)Nc5ccc(F)cc5)CC4)cc3F)ccnc2cc1OCCCN1CCOCC1 [Foretinib] (partner 0.25 µM)
Method in brief: as §1

Cell Line | relative viability (SGI-1776 + OSI-027; first compound 0.08 µM) | relative viability (SGI-1776 + OSI-027; first compound 0.8 µM) | relative viability (SGI-1776 + OSI-027; first compound 2.53 µM) | relative viability (SGI-1776 + OSI-027; first compound 8 µM) | relative viability (Entinostat + Pictilisib; first compound 0.02 µM) | relative viability (Entinostat + Pictilisib; first compound 0.06325 µM) | relative viability (Entinostat + Pictilisib; first compound 0.2 µM) | relative viability (Entinostat + Pictilisib; first compound 0.6325 µM) | relative viability (Entinostat + Pictilisib; first compound 2 µM) | relative viability (Entinostat + Palbociclib; first compound 0.02 µM) | relative viability (Entinostat + Palbociclib; first compound 0.06325 µM) | relative viability (Entinostat + Palbociclib; first compound 0.2 µM) | relative viability (Entinostat + Palbociclib; first compound 0.6325 µM) | relative viability (Entinostat + Palbociclib; first compound 2 µM) | relative viability (Entinostat + Foretinib; first compound 0.02 µM) | relative viability (Entinostat + Foretinib; first compound 0.06325 µM) | relative viability (Entinostat + Foretinib; first compound 0.2 µM) | relative viability (Entinostat + Foretinib; first compound 0.6325 µM) | relative viability (Entinostat + Foretinib; first compound 2 µM)
NCI-H2009 | 0.653 | 0.636 | 0.591 | 0.282 | 0.811 | 0.941 | 0.882 | 0.73 | 0.546 | 0.189 | 0.301 | 0.187 | 0.253 | 0.214 | 1.15 | 1.19 | 1.19 | 0.942 | 0.894
NCI-H2023 | 0.415 | 0.388 | 0.319 | 0.167 | 0.173 | 0.182 | 0.146 | 0.126 | 0.0933 | 0.319 | 0.312 | 0.258 | 0.151 | 0.0658 | 0.765 | 0.749 | 0.408 | 0.162 | 0.11
NCI-H2085 | 0.745 | 0.828 | 0.853 | 0.44 | 0.477 | 0.388 | 0.378 | 0.382 | 0.403 | 0.438 | 0.441 | 0.43 | 0.4 | 0.421 | 1.01 | 0.969 | 0.984 | 0.54 | 0.401
NCI-H2087 | 0.704 | 0.693 | 0.566 | 0.496 | 0.741 | 0.822 | 0.826 | 0.353 | 0.315 | 0.252 | 0.209 | 0.174 | 0.0887 | 0.0971 | 1.18 | 1.04 | 0.89 | 0.352 | 0.256
NCI-H2126 | 0.708 | 0.813 | 0.693 | 0.659 | 0.44 | 0.545 | 0.47 | 0.301 | 0.298 | 0.316 | 0.317 | 0.351 | 0.321 | 0.334 | 1.12 | 1.06 | 1.05 | 0.572 | 0.415
NCI-H2170 | 0.741 | 0.671 | 0.666 | 0.67 | 0.38 | 0.375 | 0.325 | 0.235 | 0.167 | 0.387 | 0.362 | 0.314 | 0.252 | 0.216 | 0.978 | 1.05 | 0.964 | 0.597 | 0.613
NCI-H2228 | 0.644 | 0.582 | 0.425 | 0.275 | 0.289 | 0.285 | 0.292 | 0.253 | 0.161 | 0.617 | 0.747 | 0.691 | 0.35 | 0.244 | 0.994 | 0.787 | 0.914 | 0.526 | 0.288
NCI-H2347 | 0.421 | 0.489 | 0.518 | 0.426 | 0.494 | 0.321 | 0.333 | 0.216 | 0.345 | 0.48 | 0.387 | 0.361 | 0.339 | 0.261 | 0.837 | 0.812 | 0.454 | 0.254 | 0.37
NCI-H2405 | 0.643 | 0.659 | 0.549 | 0.568 | 0.483 | 0.678 | 0.545 | 0.393 | 0.222 | 0.515 | 0.531 | 0.571 | 0.532 | 0.453 | 1.06 | 1.11 | 0.979 | 0.902 | 0.614
